According to patent publication US11046680B1, “Heteroaryl-substituted triazoles as APJ receptor agonists” (priority 2016, dated 2021):

The compounds below were run against human APJ receptor (Homo sapiens (Human), UniProt P35414) (assay: biochemical). Details: [35S]GTPγS binding, CHO membranes expressing human APJ receptor; read-out: Activity hAPJ SPA EC50 IP.
Format: biochemical
Method in brief: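 Membranes of a stable CHO line carrying human APJ (pFLAG-CMV-3) were used in a GTPγS binding format; buffer GDP, MgCl2 and NaCl were optimized, and plates were read after 90 min at RT.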

Chain of human APJ receptor (P35414 whole entry): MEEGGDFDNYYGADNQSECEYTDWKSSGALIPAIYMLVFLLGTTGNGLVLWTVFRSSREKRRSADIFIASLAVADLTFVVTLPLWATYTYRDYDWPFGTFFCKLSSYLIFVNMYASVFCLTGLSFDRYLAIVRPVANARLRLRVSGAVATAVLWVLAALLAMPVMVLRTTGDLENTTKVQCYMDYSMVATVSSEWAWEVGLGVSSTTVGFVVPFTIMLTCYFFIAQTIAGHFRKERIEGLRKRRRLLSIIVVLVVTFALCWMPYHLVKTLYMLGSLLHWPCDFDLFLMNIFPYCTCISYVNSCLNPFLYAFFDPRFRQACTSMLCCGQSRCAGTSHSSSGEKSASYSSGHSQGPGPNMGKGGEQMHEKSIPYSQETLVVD

First: COc1ncnc(OC)c1-n1c(NS(=O)(=O)[C@@H](C)[C@H](OC)c2ncc(C)cn2)nnc1-c1csc(C)n1 [Example 5.0, (1R,2S)-N-(4-(4,6-dimethoxypyrimidin-5-yl)-5-(2-methylthiazol-4-yl)-4H-1,2,4-triazol-3-yl)-1-methoxy-1-(5-methylpyrimidin-2-yl)propane-2-sulfonamide]
Second: COc1ncnc(OC)c1-n1c(NS(=O)(=O)[C@@H](C)[C@H](C)c2ncc(C)cn2)nnc1-c1noc2ccccc12 [Example 88.0, (2S,3R)-N-(5-(benzo[d]isoxazol-3-yl)-4-(4,6-dimethoxypyrimidin-5-yl)-4H-1,2,4-triazol-3-yl)-3-(5-methylpyrimidin-2-yl)butane-2-sulfonamide]
The EC50 of the first is 12-fold lower: 4.1 nM for the first, 50 nM for the second. The first is the more potent here.

Going from COc1cccc(OC)c1-n1c(NS(=O)(=O)CCc2ncc(C)cn2)nnc1-c1nc(C)cs1 [Example 10.0, N-(4-(2,6-dimethoxyphenyl)-5-(4-methyl-1,3-thiazol-2-yl)-4H-1,2,4-triazol-3-yl)-2-(5-methyl-2-pyrimidinyl)ethanesulfonamide] to COc1cccc(OC)c1-n1c(NS(=O)(=O)CCc2ncc(F)cn2)nnc1-c1nc(C)cs1 [Example 94.0, N-(4-(2,6-dimethoxyphenyl)-5-(4-methylthiazol-2-yl)-4H-1,2,4-triazol-3-yl)-2-(5-fluoropyrimidin-2-yl)ethanesulfonamide], the EC50 falls from 8.4 nM to 2.7 nM (3.1-fold). The second is the more potent here.

COc1cccc(OC)c1-n1c(NS(=O)(=O)CCN2C(=O)N(C)CC[C@@H]2C)nnc1-c1nc(C)cs1 [Example 13.0, N-(4-(2,6-dimethoxyphenyl)-5-(4-methyl-1,3-thiazol-2-yl)-4H-1,2,4-triazol-3-yl)-2-((6S)-3,6-dimethyl-2-oxotetrahydro-1(2H)-pyrimidinyl)ethanesulfonamide] and COc1cccc(OC)c1-n1c(NS(=O)(=O)[C@H](C)Cc2ncc(F)cn2)nnc1-c1nc(C)cs1 [Example 100.0] are within 1.5-fold of each other in EC50: 2.9 nM for the first, 3 nM for the second.

Going from CCOC(=O)c1ccc(OC)c(-n2c(NS(=O)(=O)CCc3ccc(Cl)cc3)nnc2-c2cccs2)c1 [Example 28.0, Ethyl 3-(3-(2-(4-chlorophenyl)ethylsulfonamido)-5-(thiophen-2-yl)-4H-1,2,4-triazol-4-yl)-4-methoxybenzoate] to COc1ccc(Br)cc1-n1c(NS(=O)(=O)CCc2ccc(Cl)cc2)nnc1-c1cccs1 [Example 133.0, N-(4-(5-Bromo-2-methoxyphenyl)-5-(thiophen-2-yl)-4H-1,2,4-triazol-3-yl)-2-(4-chlorophenyl)ethanesulfonamide], the EC50 rises from 6 nM to 363 nM (60-fold).

Going from COc1cccc(OC)c1-n1c(NS(=O)(=O)[C@@H](C)[C@H](C)c2ncc(C)cn2)nnc1-c1noc2ccccc12 [Example 77.0, (2S,3R)-N-(5-(benzo[d]isoxazol-3-yl)-4-(2,6-dimethoxyphenyl)-4H-1,2,4-triazol-3-yl)-3-(5-methylpyrimidin-2-yl)butane-2-sulfonamide] to COc1cccc(OC)c1-n1c(NS(=O)(=O)[C@@H](C)[C@H](OC)c2ncc(C)cn2)nnc1-c1noc2ccccc12 [Example 87.0, (1R,2S)-N-(5-(benzo[d]isoxazol-3-yl)-4-(2,6-dimethoxyphenyl)-4H-1,2,4-triazol-3-yl)-1-methoxy-1-(5-methylpyrimidin-2-yl)propane-2-sulfonamide], the EC50 rises from 4.1 nM to 82 nM (20-fold). The first is the more potent here.

Going from COc1cccc(OC)c1-n1c(NS(=O)(=O)[C@@H](C)[C@H](OC)c2ncc(Cl)cn2)nnc1-c1noc2ccccc12 [Example 83.0, (1R,2S)-N-(5-(benzo[d]isoxazol-3-yl)-4-(2,6-dimethoxyphenyl)-4H-1,2,4-triazol-3-yl)-1-(5-chloropyrimidin-2-yl)-1-methoxypropane-2-sulfonamide] to COc1cccc(OC)c1-n1c(NS(=O)(=O)[C@@H](C)[C@H](OC)c2ncc(C)cn2)nnc1-c1ccon1 [Example 90.0, (1R,2S)-N-(4-(2,6-dimethoxyphenyl)-5-(isoxazol-3-yl)-4H-1,2,4-triazol-3-yl)-1-methoxy-1-(5-methylpyrimidin-2-yl)propane-2-sulfonamide], the EC50 rises from 1.9 nM to 33 nM (17-fold).

First: Cc1cnc([C@@H](C)[C@H](C)S(=O)(=O)Nc2nnc(-c3noc4ccccc34)n2C2CCOCC2)nc1 [Example 84.0, (2S,3R)-N-(5-(benzo[d]isoxazol-3-yl)-4-(tetrahydro-2H-pyran-4-yl)-4H-1,2,4-triazol-3-yl)-3-(5-methylpyrimidin-2-yl)butane-2-sulfonamide]
Second: CCn1ccc(-c2nnc(NS(=O)(=O)[C@@H](C)[C@H](OC)c3ncc(F)cn3)n2-c2c(OC)cccc2OC)n1 [Example 134.0, (1R,2S)-N-(4-(2,6-Dimethoxyphenyl)-5-(1-ethyl-1H-pyrazol-3-yl)-4H-1,2,4-triazol-3-yl)-1-(5-fluoro-2-pyrimidinyl)-1-methoxy-2-propanesulfonamide]
The EC50 of the first is 220-fold higher: 260 nM for the first, 1.2 nM for the second. The second is the more potent here.

COc1cccc(OC)c1-n1c(NS(=O)(=O)CCc2ccc(Cl)cc2)nnc1-c1cscn1 [Example 91.0, 2-(4-chlorophenyl)-N-(4-(2,6-dimethoxyphenyl)-5-(thiazol-4-yl)-4H-1,2,4-triazol-3-yl)ethanesulfonamide] and COc1cccc(OC)c1-n1c(NS(=O)(=O)CCc2ccc(Cl)cc2)nnc1-c1nccs1 [Example 136.0, 2-(4-chlorophenyl)-N-(4-(2,6-dimethoxyphenyl)-5-(thiazol-2-yl)-4H-1,2,4-triazol-3-yl)ethanesulfonamide] are within 1.5-fold of each other in EC50: 26 nM for the first, 35 nM for the second.

Going from COc1cccc(OC)c1-n1c(NS(=O)(=O)CCc2ccc(Cl)cc2)nnc1-c1ncco1 [Example 92.0, 2-(4-chlorophenyl)-N-(4-(2,6-dimethoxyphenyl)-5-(oxazol-2-yl)-4H-1,2,4-triazol-3-yl)ethanesulfonamide] to COc1cccc(OC)c1-n1c(NS(=O)(=O)CCc2ccc(Cl)cc2)nnc1-c1cnco1 [Example 138.0, 2-(4-chlorophenyl)-N-(4-(2,6-dimethoxyphenyl)-5-(oxazol-5-yl)-4H-1,2,4-triazol-3-yl)ethanesulfonamide], the EC50 rises from 71 nM to 586 nM (8.3-fold). The first is the more potent here.

Compared with COc1cccc(OC)c1-n1c(NS(=O)(=O)CCc2ccc(Cl)cc2)nnc1-c1cncn1C [Example 93.0, 2-(4-chlorophenyl)-N-(4-(2,6-dimethoxyphenyl)-5-(1-methyl-1H-imidazol-5-yl)-4H-1,2,4-triazol-3-yl)ethanesulfonamide], COc1cccc(OC)c1-n1c(NS(=O)(=O)CCc2ccc(Cl)cc2)nnc1-c1cncs1 [Example 137.0, 2-(4-chlorophenyl)-N-(4-(2,6-dimethoxyphenyl)-5-(thiazol-5-yl)-4H-1,2,4-triazol-3-yl)ethanesulfonamide] is 1.5-fold higher in EC50: 20 nM for the first, 30 nM for the second.

COc1cccc(OC)c1-n1c(NS(=O)(=O)CCc2ncc(F)cn2)nnc1-c1nc(C(C)C)cs1 [Example 96.0, N-(4-(2,6-dimethoxyphenyl)-5-(4-isopropylthiazol-2-yl)-4H-1,2,4-triazol-3-yl)-2-(5-fluoropyrimidin-2-yl)ethanesulfonamide] and CCc1csc(-c2nnc(NS(=O)(=O)CCc3ncc(F)cn3)n2-c2c(OC)cccc2OC)n1 [Example 97.0, N-(4-(2,6-dimethoxyphenyl)-5-(4-ethylthiazol-2-yl)-4H-1,2,4-triazol-3-yl)-2-(5-fluoropyrimidin-2-yl)ethanesulfonamide] are the same in EC50: 7 nM for the first, 7 nM for the second.

Compared with CCc1nc(-c2nnc(NS(=O)(=O)CCc3ncc(F)cn3)n2-c2c(OC)cccc2OC)cs1 [Example 99.0, N-(4-(2,6-dimethoxyphenyl)-5-(2-ethylthiazol-4-yl)-4H-1,2,4-triazol-3-yl)-2-(5-fluoropyrimidin-2-yl)ethanesulfonamide], CCc1csc(-c2nnc(NS(=O)(=O)[C@H](C)Cc3ncc(F)cn3)n2-c2c(OC)cccc2OC)n1 [Example 106.0] is 1.6-fold higher in EC50: 13 nM for the first, 21 nM for the second.

Going from COc1cccc(OC)c1-n1c(NS(=O)(=O)[C@H](C)Cc2ncc(F)cn2)nnc1-c1nc(C)cs1 [Example 103.0] to CCO[C@H](c1ncc(F)cn1)[C@H](C)S(=O)(=O)Nc1nnc(-c2ccn(C)n2)n1-c1c(OC)cccc1OC [Example 135.0, (1R,2S)-N-(4-(2,6-Dimethoxyphenyl)-5-(1-methyl-1H-pyrazol-3-yl)-4H-1,2,4-triazol-3-yl)-1-ethoxy-1-(5-fluoro-2-pyrimidinyl)-2-propanesulfonamide], the EC50 falls from 8.4 nM to 0.88 nM (9.5-fold). The second is the more potent here.

First: COc1ccc(N2CCCC2=O)cc1-n1c(NS(=O)(=O)CCc2ccc(Cl)cc2)nnc1-c1cccs1 [Example 125.0, 2-(4-Chlorophenyl)-N-(4-(2-methoxy-5-(2-oxo-1-pyrrolidinyl)phenyl)-5-(2-thiophenyl)-4H-1,2,4-triazol-3-yl)ethanesulfonamide]
Second: COc1ccc(N2CCC2=O)cc1-n1c(NS(=O)(=O)CCc2ccc(Cl)cc2)nnc1-c1cccs1 [Example 126.0, 2-(4-Chlorophenyl)-N-(4-(2-methoxy-5-(2-oxo-1-azetidinyl)phenyl)-5-(2-thiophenyl)-4H-1,2,4-triazol-3-yl)ethanesulfonamide]
The EC50 of the first is 2.2-fold higher: 24 nM for the first, 11 nM for the second.

First: COc1ccc(N2CCOCC2=O)cc1-n1c(NS(=O)(=O)CCc2ccc(Cl)cc2)nnc1-c1cccs1 [Example 127.0, 2-(4-Chlorophenyl)-N-(4-(2-methoxy-5-(3-oxo-4-morpholinyl)phenyl)-5-(2-thiophenyl)-4H-1,2,4-triazol-3-yl)ethanesulfonamide]
Second: COc1ccc(N2CCC2=O)cc1-n1c(NS(=O)(=O)CCc2ccc(F)cc2)nnc1-c1cccs1 [Example 130.0, 2-(4-Fluorophenyl)-N-(4-(2-methoxy-5-(2-oxo-1-azetidinyl)phenyl)-5-(2-thiophenyl)-4H-1,2,4-triazol-3-yl)ethanesulfonamide]
The EC50 of the first is 86-fold higher: 300 nM for the first, 3.5 nM for the second.

Going from COc1ccc(N2CCC2=O)cc1-n1c(NS(=O)(=O)CCc2ccc(F)cc2Br)nnc1-c1cccs1 [Example 131.0, 2-(2-Bromo-4-fluorophenyl)-N-(4-(2-methoxy-5-(2-oxoazetidin-1-yl)phenyl)-5-(thiophen-2-yl)-4H-1,2,4-triazol-3-yl)ethanesulfonamide] to COc1ccc(N2CCC2=O)cc1-n1c(NS(=O)(=O)CCc2ccc(F)cc2C#N)nnc1-c1cccs1 [Example 132.0, 2-(2-Cyano-4-fluorophenyl)-N-(4-(2-methoxy-5-(2-oxoazetidin-1-yl)phenyl)-5-(thiophen-2-yl)-4H-1,2,4-triazol-3-yl)ethanesulfonamide], the EC50 falls from 4.1 nM to 0.24 nM (17-fold).
